Measured values as given in patent US20250213701A1, “MEDICAMENT FOR TREATING HUMAN TUMOR BASED ON ERF3A-TARGETING PROTEOLYSIS MECHANISM” (SUZHOU DEGEN BIO-MEDICAL CO., LTD., priority 2022, published 2025).

Assays:
Type in all cases: cell-based
Details in all cases: Homo sapiens, 72 h, 3 days, read-out: Inhibition rate
PC-3 cells = assay: Anti-proliferative toxicity of C63 in tumor cell lines (CCK8): PC-3
Description: (§1) Example 83: Detection of Anti-Proliferative Toxicity of C63 in Some Tumor Cell Lines
PC-3 cells (purchased from the Cell Bank of the Chinese Academy of Sciences, Cat. No. SCSP-532) were subcultured in a culture medium (F12K medium+1% penicillin-streptomycin dual-antibiotic solution+10% fetal bovine serum) in an incubator at […] and 37° C.
PC-3 cells were seeded at 4000 cells/well (90 μL) on a 96-well plate and cultured for 24 h.
(§2) 10 mM compound stock solutions were prepared in DMSO.
(§3) The compound stock solution was diluted with DMSO to give DMSO solutions 1-9 at concentrations of 0 μM, 2500 μM, 500 μM, 100 μM, 20 μM, 4 μM, 0.8 μM, 0.16 μM, and 0.032 μM.
(§4) 2 μL of each of solutions 1-9 was added to 98 μL of the medium to give mixed solutions 11-19 of the compound and the medium.
(§5) 10 μL of each of solutions 11-19 was added to the above cell seed solution to give a total volume of 100 μL (90 μL+10 μL).
(§6) The concentrations of the compound in the wells were 0 μM, 5.0 μM, 1.0 μM, 0.2 μM, 0.04 μM, 0.008 μM, 0.0016 μM, 0.00032 μM, and 0.000064 μM. All concentrations were in triplicate.
(§7) After the above-treated cells were cultured for 3 days, 10 μL of the CCK8 solution (DOJINDO, Cat. No. PF725) was added to each well. The plate was incubated in an incubator at 37° C. for 1-4 h and then detected on a microplate reader for the reading at 450 nm.

C-33 A cells = assay: Anti-proliferative toxicity of C63 in tumor cell lines (CCK8): C-33 A
Description: as §1
C-33 A cells (purchased from the Cell Bank of the Chinese Academy of Sciences, Cat. No. TCHu176) were subcultured in a culture medium (MEM medium+1% penicillin-streptomycin dual-antibiotic solution+10% fetal bovine serum) in an incubator at 5% carbon dioxide and 37° C.
C-33 A cells were seeded at 5000 cells/well (90 μL) on a 96-well plate and cultured for 24 h.
as §2, §3, §4, §5, §6, §7

NCI-N87 cells = assay: Anti-proliferative toxicity of C63 in tumor cell lines (CCK8): NCI-N87
Description: as §1
NCI-N87 cells (purchased from the Cell Bank of the Chinese Academy of Sciences, Cat. No. TCHu130) were subcultured in a culture medium (RPMI-1640 medium+1% penicillin-streptomycin dual-antibiotic solution+10% fetal bovine serum) in an incubator at 5% carbon dioxide and 37° C.
NCI-N87 cells were seeded at 8000 cells/well (90 μL) on a 96-well plate and cultured for 24 h.
as §2, §3, §4, §5, §6, §7

MDA-MB-468 cells = assay: Anti-proliferative toxicity of C63 in tumor cell lines (CCK8): MDA-MB-468
Description: as §1
MDA-MB-468 cells (purchased from the Cell Bank of the Chinese Academy of Sciences, Cat. No. TCHu136) were subcultured in a culture medium (L15 medium+1% penicillin-streptomycin dual-antibiotic solution+10% fetal bovine serum) in an incubator at 37° C.
MDA-MB-468 cells were seeded at 5000 cells/well (90 μL) on a 96-well plate and cultured for 24 h.
as §2, §3, §4, §5, §6, §7

`C[C@]12C=CC(=O)N[C@@H]1CC[C@@H]1[C@@H]2CC[C@]2(C)[C@@H](C(=O)Nc3cccc(N[C@@H]4CCC[C@@H](Nc5cccc6c5C(=O)N([C@H]5CCC(=O)NC5=O)C6=O)C4)c3)CC[C@@H]12` [C63, N-(3-(N—(N-(4-(2-(3S-(2,6-dioxopiperidine))-isoindole-1,3-dione))-1R,3R-cyclohexanediamine))phenyl)-3-oxo-4-aza-5α-androst-1-ene-17β-carboxamide] was tested, and the inhibition at 64 pM (PC-3 cells; 0.000064 μM) was 45.1%, the inhibition at 0.00032 µM (PC-3 cells; 0.000320 μM) was 65.1% and the inhibition at 0.0016 µM (PC-3 cells; 0.001600 μM) was 78.8%. It also gave an inhibition at 0.008 µM (PC-3 cells; 0.008000 μM) of 82.8%, an inhibition at 0.04 µM (PC-3 cells; 0.040000 μM) of 80.2% and an inhibition at 0.2 µM (PC-3 cells; 0.200000 μM) of 78.4%. The inhibition at 1 µM (PC-3 cells; 1.000000 μM) was 78.4%, the inhibition at 5 µM (PC-3 cells; 5.000000 μM) was 82.1% and the inhibition at 64 pM (C-33 A cells; 0.000064 μM) was 21.5%. For the same compound, the inhibition at 0.00032 µM (C-33 A cells; 0.000320 μM) was 15.9%, the inhibition at 0.0016 µM (C-33 A cells; 0.001600 μM) was 25.4% and the inhibition at 0.008 µM (C-33 A cells; 0.008000 μM) was 35.5%. The inhibition at 0.04 µM (C-33 A cells; 0.040000 μM) was 48.3%, the inhibition at 0.2 µM (C-33 A cells; 0.200000 μM) was 56.7% and the inhibition at 1 µM (C-33 A cells; 1.000000 μM) was 63.9%. For the same compound, the inhibition at 5 µM (C-33 A cells; 5.000000 μM) was 72.3%, the inhibition at 64 pM (NCI-N87 cells; 0.000064 μM) was 7.79% and the inhibition at 0.00032 µM (NCI-N87 cells; 0.000320 μM) was 32.7%. It also gave an inhibition at 0.0016 µM (NCI-N87 cells; 0.001600 μM) of 61%, an inhibition at 0.008 µM (NCI-N87 cells; 0.008000 μM) of 66.7% and an inhibition at 0.04 µM (NCI-N87 cells; 0.040000 μM) of 64.1%. It also gave an inhibition at 0.2 µM (NCI-N87 cells; 0.200000 μM) of 62.5%, an inhibition at 1 µM (NCI-N87 cells; 1.000000 μM) of 64% and an inhibition at 5 µM (NCI-N87 cells; 5.000000 μM) of 65.2%. The inhibition at 64 pM (MDA-MB-468 cells; 0.000064 μM) was 4.42%, the inhibition at 0.00032 µM (MDA-MB-468 cells; 0.000320 μM) was 30.5% and the inhibition at 0.0016 µM (MDA-MB-468 cells; 0.001600 μM) was 55.1%. The inhibition at 0.008 µM (MDA-MB-468 cells; 0.008000 μM) was 64.6%, the inhibition at 0.04 µM (MDA-MB-468 cells; 0.040000 μM) was 65% and the inhibition at 0.2 µM (MDA-MB-468 cells; 0.200000 μM) was 65.5%. The inhibition at 1 µM (MDA-MB-468 cells; 1.000000 μM) was 70.2% and the inhibition at 5 µM (MDA-MB-468 cells; 5.000000 μM) was 74%.
